Laboratory results as given in patent US5550143A, “Heterocyclic compounds” (Adir et Compagnie, priority 1992, dated 1996).
Read-outs that look alike come from different tables or passages of the source.

Experiments:
[1] = tested on: spontaneous motor activity; assay: Locomotive activity in mice (spontaneous motor activity); format: in vivo; conditions: for Number of movements (as a % compared with a control group): 30 min before test, 15 min, ns p > 0.05, ** p < 0.01
Description: This test consists in determining the spontaneous motor activity of mice placed in an enclosure that constitutes a new environment and is equipped with a system of infra-red rays, the interruption of which when the animal passes through serves as a measurement criterion ("Activity monitor" Digiscan-Omnitech Electronics, Sufraco France).
The molecules are administered intraperitoneally 30 minutes before the test at doses of 1, 2, 2.5, 4, 5 and 10 mg/kg. The locomotive activity (number of movements) is measured for 15 minutes.

[2] = Hypotensive effect in rats; format: in vivo; conditions: 20 mg/kg intraperitoneally
corticosteronemia = assay: Measurement of corticosteronemia after administration of IL-1; format: in vivo, mice; conditions: for Reduction in hypercorticosteronemia compared with control / Hypercorticosteronemia after admin. IL-1: 30 min before 1 μg IL-1 i.p.; for Hypercorticosteronemia after admin. IL-1: measured 2 hours later
Description: Thirty minutes after the intraperitoneal administration of the molecule to be tested, the mice are treated with 1 μg of IL-1 injected intraperitoneally. Corticosteronemia is determined 2 hours later by a suitable technique. Under the same conditions, the compound and then a saline solution are administered intraperitoneally to a control group.

Procine pancreatic PLA2 = molecular target: T1, Procine pancreatic PLA2 (Sus scrofa, UniProt P00592); assay: Inhibition of phospholipase PLA2 activity (E. coli membranes labelled with tritiated oleic acid); format: biochemical, pigs; conditions: read-out: % Inhibition at 1 mM
T1 construct: from tissue; host or cells: porcine pancreas
T1 sequence (P00592 23-146): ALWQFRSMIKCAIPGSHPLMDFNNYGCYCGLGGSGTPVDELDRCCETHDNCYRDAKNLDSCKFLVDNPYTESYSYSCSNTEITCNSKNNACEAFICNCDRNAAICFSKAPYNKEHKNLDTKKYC
Description: PLA2 hydrolyses cell membrane phospholipids by freeing arachidonic acid (AA). Inhibition of that enzyme brings about a reduction in the amount of non-esterified free AA from which metabolites, such as leucotrienes and pro-inflammatory prostaglandins, are produced. The PLA2 activity is measured by using as substrate E. coli membranes labelled with tritiated oleic acid. Procine pancreatic PLA2 is incubated with the preparation for 30 minutes at 37° C. After centrifugation, the radioactivity of the supernatant is counted. The inhibitory activity of the compound (1 mM) is expressed in relation to the control.

TNF [3] = assay: Inhibition of the production of TNF in mice treated with LPS (amount of TNF in the serum); format: in vivo; conditions: Mus musculus, 1 h; for inhibition in vivo at 50 mg/kg: oral, 30 min before LPS 2.5 μg i.p., compared with control group which received only LPS, read-out: % inhibition of the production of TNF after oral admin.
Description: The test is carried out on mice. Thirty minutes after the intraperitoneal or oral administration of the molecule to be tested, the mice are treated intraperitoneally with 2.5 μg of LPS from Escherichia coli. The amount of TNF in the serum is measured after 1 hour by a biological method.

LPS shock = assay: Protective effect in respect of LPS shock (% survival of mice after administration of LPS); format: in vivo; conditions: 30 min before LPS 1 μg
Description: The test is carried out on mice. The compound to be tested is administered intraperitoneally or orally. In the first protocol (i.p.), the compound is administered 30 minutes before the injection of 1 μg of LPS into mice. The mortality is determined 72 hours later.

TNF [4] = assay: Peripheral effect: amount of TNF in serum and brain of rats after intracerebroventricular LPS; format: in vivo; conditions: Example 1 i.p. 8 mg/kg, FIG. 1
Description: In comparison with chlorpromazine, the compounds of the invention have only a peripheral effect.

[5] = ip, read-out: % inhibition of the production of TNF after i.p. admin.
[6] = 1 mM, 30 minutes at 37° C., relative to control

SMILES	hypotension [2]	Reduction in hypercorticosteronemia compared with control (corticosteronemia; 5 mg/kg i.p.)	Hypercorticosteronemia after admin. IL-1 (corticosteronemia; 5 mg/kg i.p.)	inhibition in vivo at 50 mg/kg (TNF [3])	inhibition in vivo at 5 mg/kg (TNF [3]; [5])	other results
CN(C)CCCN1c2ccccc2Sc2ccc(Cl)cc21 [Chlorpromazine, reference compound]	severe hypotension from the 15th minute onwards	–	–	–	–	Number of movements (as a % compared with a control group) ([1]; IP 1 mg/kg): -20%; Number of movements (as a % compared with a control group) ([1]; IP 2 mg/kg): -58%; Number of movements (as a % compared with a control group) ([1]; IP 4 mg/kg): -64%; sedative action (in words) ([1]; i.p., chlorpromazine at 2 mg/kg and above): very sedative at 2 mg/kg and above; Reduction in hypercorticosteronemia compared with control (corticosteronemia; 4 mg/kg i.p.): ~86%; Reduction in hypercorticosteronemia compared with control (corticosteronemia; 4 mg/kg i.p., listed as Chloropromazine): 85.7%; Hypercorticosteronemia after admin. IL-1 (corticosteronemia; 4 mg/kg i.p.): 63 ng/ml serum; passage through the blood/brain barrier (corticosteronemia; demonstrated by determination of corticosteronemia after IL-1): crosses the blood/brain barrier; inhibition at 1000 µM (Procine pancreatic PLA2): 76%; inhibition in vivo at 4 mg/kg (TNF [3]; [5]): 100%; % survival 72 h after i.p. administration (LPS shock; 1 mg/kg): 36%; % survival 72 h after i.p. administration (LPS shock; 4 mg/kg): 77%; amount of TNF in the brain (rats, intracerebroventricular LPS) (TNF [4]; brain): the amount in the brain, as is observed in rats treated with chlorpromazine; amount of TNF in the serum (rats, intracerebroventricular LPS) (TNF [4]; 8 mg/kg): reduces the amount of TNF in the serum, as does chlorpromazine
C[N+](C)(C)CCCN1c2ccccc2Sc2ccc(Cl)cc21.[Br-] [Example 1, N-[3-(2-chlorophenothiazin-10-yl)propyl]trimethylammonium bromide]	No hypotension is observed	11.8%	389 ng/ml serum	68%	75%	Number of movements (as a % compared with a control group) ([1]; IP 5 mg/kg): -20%; Number of movements (as a % compared with a control group) ([1]; IP 10 mg/kg): -9%; inhibition at 1000 µM (Procine pancreatic PLA2; [6]): 72%; % survival 72 h after i.p. administration (LPS shock; 5 mg/kg): 80%; amount of TNF in the serum (rats, intracerebroventricular LPS) (TNF [4]): reduces the amount of TNF in the serum
C[N+](C)(C)CCCN1c2ccccc2[S+]([O-])c2ccc(Cl)cc21.[Br-] (stereo not drawn) [Example 2, N-[3-(2-chloro-5-oxo-phenothiazin-10-yl)propyl]trimethylammonium bromide]	No hypotension is observed	5.4%	417 ng/ml serum	60%	50%	–
C[N+](C)(C)CCCN1c2ccccc2S(=O)(=O)c2ccc(Cl)cc21 [Example 3, N-[3-(2-chloro-5-dioxo-phenothiazin-10-yl)propyl]trimethylammonium bromide]	–	–	–	–	69%	–
CC(C)[N+](C)(C)CCCN1c2ccccc2Sc2ccc(Cl)cc21 [Example 6, N-[3-(2-chlorophenothiazin-10-yl)propyl] dimethylisopropylammonium bromide]	–	–	–	38%	–	–
CCCC[N+](C)(C)CCCN1c2ccccc2Sc2ccc(Cl)cc21.[Br-] [Example 7, N-[3-(2-chlorophenothiazin-10-yl)propyl] butyldimethylammonium bromide]	No hypotension is observed	11.8%	389 ng/ml serum	72%	95%	Number of movements (as a % compared with a control group) ([1]; IP 5 mg/kg): -43%; Number of movements (as a % compared with a control group) ([1]; IP 10 mg/kg): -63%; Number of movements (as a % compared with a control group) ([1]; IP 2,5 mg/kg): -27%; inhibition at 1000 µM (Procine pancreatic PLA2; [6]): 97%; % survival 72 h after i.p. administration (LPS shock; 5 mg/kg): 40%
CCCC[N+](C)(C)CCCN1c2ccccc2[S+]([O-])c2ccc(Cl)cc21.[Br-] (stereo not drawn) [Example 8, N-[3-(2-chloro-5-oxo-phenothiazin-10-yl)propyl] butyldimethylammonium bromide]	No hypotension is observed	19.3%	356 ng/ml serum	73%	71%	–
CCCC[N+](C)(C)CCCN1c2ccccc2S(=O)(=O)c2ccc(Cl)cc21 [Example 9, N-[3-(2-chloro-5-dioxo-phenothiazin-10-yl)propyl] butyldimethylammonium bromide]	–	–	–	–	75%	–
C[N+](C)(CCCN1c2ccccc2Sc2ccc(Cl)cc21)Cc1ccccc1.[Br-] [Example 10, N-[3-(2-chlorophenothiazin-10-yl)propyl] benzyldimethylammonium bromide]	–	0.2%	440 ng/ml serum	–	27%	inhibition at 1000 µM (Procine pancreatic PLA2; [6]): 98%; % survival 72 h after i.p. administration (LPS shock; 5 mg/kg): 60%
O=C(O)CCCN1c2ccccc2Sc2ccc(Cl)cc21 [Example 15, 4-(2-chlorophenothiazin-10-yl)butanoic acid]	–	–	–	55%	–	–
CC(C)=CCC/C(C)=C/CN1c2ccccc2Sc2ccc(Cl)cc21 [Example 26, 2-chloro-10-[(2E)-1-(3,7-dimethylocta-2,6-dienyl)]phenothiazine]	–	–	–	55%	–	–
CC(C)(C)C1CCC2(CC1)CCN(CCCN1c3ccccc3Sc3ccc(Cl)cc31)C2 (stereo not drawn) [Example 27, 2-[3-(2-chlorophenothiazin-10-yl)propyl]-8-tert-butyl-2-azoniaspiro[4.5]decane chloride]	–	–	–	26%	–	–
CCN(CC)CCCC(C)Nc1c2ccc(Cl)cc2nc2ccc(OC)cc12 (stereo not drawn) [Mepacrine, reference compound]	–	–	–	–	–	inhibition at 1000 µM (Procine pancreatic PLA2): 67%
